Test results published in a melting point compilation (Tetko et al.).

## O=C1NC2NC(=O)NC2N1 (configuration not stated)
  melting point: 300 °C

## Cn1ccc2cc(S(=O)(=O)Cl)ccc21
  melting point: 79 to 80 °C

## CCOC(=O)c1sc(SCc2ccccc2)c2c1CCCC2=O
  melting point: 139 to 141 °C

## COc1ccccc1N1CCN(CC(N)=S)CC1
  melting point: 130 to 132 °C

## CCCCCCCOC(=O)CCCCCCC
  melting point: -10.6 °C

## O=C1CC(=P(c2ccccc2)(c2ccccc2)c2ccccc2)C(=O)O1
  melting point: 167 °C

## O=C(Nc1cccnc1Cl)c1ccccc1
  melting point: 91 to 92 °C

## COc1ccc(C(F)(F)F)cc1C(=O)O
  melting point: 110 °C

## O=C(O)C=Cc1ccccc1C(=O)O
  melting point: 197 to 202 °C

## Cn1ncc2c(NCCNC3=CC(=O)c4ccccc4C3=O)ncnc21
  melting point: 257 °C

## O=C=Nc1ccc(-n2cccc2)cc1
  melting point: 65 to 66 °C

## Nc1nn2c(C(F)(F)F)cc(=O)[nH]c2c1/N=N/c1cccc2ccccc12
  melting point: 290 °C

## Cc1ccc(CCc2ccc(C)cc2)cc1
  melting point: 85 °C

## COc1cc(O)ccc1Br
  melting point: 79 °C

## O=c1c2c(oc3c1CCCC3)CCCC2
  melting point: 130 °C

## NC(=S)Nc1ccccc1[N+](=O)[O-]
  melting point: 136 to 137 °C

## Nc1ccnc(Br)c1
  melting point: 98 °C

## CCOC(=O)c1c(C)nc2sc3c(c2c1N)CCCC3
  melting point: 135 to 136 °C

## Nc1c(Br)cc(F)cc1Br
  melting point: 65 °C

## Nc1c(F)c(F)c(F)c(F)c1F
  melting point: 35.5 °C

## Cc1cc(C(=O)O)n[nH]1
  melting point: 241 to 242 °C

## O=C(O)Cc1c(F)cccc1F
  melting point: 101 °C

## CC(=O)Oc1ccc2c(c1)Oc1cc(OC(C)=O)ccc1C21OC(=O)c2ccccc21
  melting point: 200 to 205 °C

## COc1c(OC)c2occc2c2oc(=O)ccc12
  melting point: 119 °C

## Clc1ccccc1-c1ccccc1Cl
  melting point: 61.5 °C

## Cc1cc(C(F)(F)F)n2nc(N)c(/N=N/c3ccccc3Cl)c2n1
  melting point: 238 °C

## CCCCCc1ccc(NC(=O)c2ccc(C)cc2)cc1
  melting point: 129 °C

## CC[C@H]1CC[C@H](C(=O)O)CC1
  melting point: 50 °C

## COc1ccc([N+](=O)[O-])cc1NN=C1C(=O)C(C(=O)Nc2cccc([N+](=O)[O-])c2)=Cc2ccccc21
  melting point: 335 °C

## O=C=Nc1ccc(CCl)cc1
  melting point: 33 °C

## CCOC=C(C#N)S(=O)(=O)C(C)(C)C
  melting point: 103 to 105 °C

## Nc1cnccc1I
  melting point: 61 °C

## C[C@]12CCC(=O)CC1CCC1=C2CC[C@]2(C)C(=O)CC[C@@H]12 (some centres not stated)
  melting point: 148 °C

## CC(=Cc1ccccc1)C(=O)O
  melting point: 80 °C

## COc1cc(C(=O)NCCCCCC(=O)O)cc(OC)c1OC
  melting point: 121 °C

## Cn1cc(Br)c(C(=O)Cl)n1
  melting point: 131 to 133 °C

## CCCCc1ccc(C(N)=O)cc1
  melting point: 127 to 129 °C

## Clc1ccc(CBr)cc1
  melting point: 49 °C

## Nc1nc(N)nc(-c2cc(Cl)ccc2Cl)n1
  melting point: 268 °C

## O=C(O)c1cccc(Cn2cncn2)c1
  melting point: 209 to 210 °C

## C=C1[C@@H](c2ccccc2)[C@]2(Cl)C(=O)N(C)C(=O)[C@]12Cl
  melting point: 134 °C

## O=C(O)c1cccc(S(=O)(=O)Nc2ccccc2)c1
  melting point: 236 °C

## CC(C)(C)OC(=O)N[C@@H](Cc1ccccc1)C(=O)O
  melting point: 85 to 88 °C

## CSc1ncc(CO)n1Cc1ccccc1
  melting point: 109 to 111 °C

## O=C(c1ccc(Cl)cc1)c1noc(-c2ccc(Br)cc2)c1S(=O)(=O)c1ccccc1
  melting point: 125 °C

## O=C(Cl)c1ccc(N2CCOCC2)nc1
  melting point: 158 to 159 °C

## Clc1cc2ccccc2c2ccccc12
  melting point: 46 to 50 °C

## O=CC1CC=CCC1 (configuration not stated)
  melting point: 2 °C

## Cn1c(=S)sc2ccccc21
  melting point: 90 °C

## O=C1c2ccc(O)cc2C(=O)c2ccc(O)cc21
  melting point: 300 °C

## CCCCCCc1ccc(C#Cc2ccc(CC)cc2)cc1
  melting point: 10 °C

## O=C1NC(=S)NC(=O)C1=NNc1ccc(Br)cc1
  melting point: 268 °C

## Cc1ccc2cc3c(cc2n1)CCC(C)N3C(=O)c1ccccc1 (configuration not stated)
  melting point: 155 °C

## CCN(CC)CCC1(c2ccccc2)C(=O)Oc2ccccc21 (configuration not stated)
  melting point: 43.4 °C

## O=C(c1ccccc1)N(O)c1ccccc1
  melting point: 119 to 123 °C

## N#CCSc1ccc(F)cc1
  melting point: 34 °C

## CCOC(=O)c1c(NC(=S)NCc2ccccc2)sc2c1CCCC2
  melting point: 125 to 127 °C

## Cn1cnc(S(N)(=O)=O)c1
  melting point: 222 to 224 °C

## CCCCCCCCCCCCCCCC(C)O (configuration not stated)
  melting point: 54 °C

## O=C1C=CC(=O)c2c(Cl)cccc21
  melting point: 163 °C

## COc1cc(C=C2C(=O)NC(=N)N2C)ccc1O
  melting point: 270 to 273 °C

## CC(=O)c1ccc(-c2cccs2)s1
  melting point: 109 to 114 °C

## CC(C)C(C)C(=O)O (configuration not stated)
  melting point: -1.5 °C

## CNC=O
  melting point: -3.2 °C

## C#CCNC(N)=O
  melting point: 130 to 131 °C

## CC(=O)C(C(C)=O)=C1SCCCS1
  melting point: 91 °C

## O=C(O)COc1cc(Cl)c(Cl)cc1Cl
  melting point: 156 °C

## Cc1ccc2cc3c(cc2n1)CCC(C)N3 (configuration not stated)
  melting point: 171 °C

## O=C(O)c1ccc(N/N=C(\C(=O)c2cccs2)C(=O)C(F)(F)F)cc1
  melting point: 219 °C

## OCc1ccc(-c2cccs2)nc1
  melting point: 124 to 125 °C

## CCCOC(=O)C(=O)OCCC
  melting point: -44.3 °C

## O=C(O)c1cc(-c2ccccc2)c(C(F)(F)F)s1
  melting point: 130 to 132 °C

## O=Cc1ccc(N2CCOCC2)nc1
  melting point: 88 to 89 °C

## O=[N+]([O-])c1ccccc1/C=C/c1nc2ccccc2[nH]1
  melting point: 215 °C

## O=C(O)C(O)C(=O)O
  melting point: 157 °C

## Nc1c(Cl)c(Cl)cc(Cl)c1Cl
  melting point: 107 °C

## COc1c(Cl)ccc(Cl)c1Cl
  melting point: 45 °C

## COc1cc(N)c2c(c1N)C(=O)c1ccccc1C2=O
  melting point: 242 °C

## CCC(C)c1ccccc1O (configuration not stated)
  melting point: 16 °C

## FCCCl
  melting point: -50 °C

## CCOC(=O)C1N=C(c2ccccc2F)c2cc(Cl)ccc2NC1=O (configuration not stated)
  melting point: 194 °C

## COc1cscc1C(=O)O
  melting point: 105 to 108 °C

## O=C1c2ccccc2-c2ccc([N+](=O)[O-])cc21
  melting point: 222 to 223 °C

## NNC(=O)c1ccc([N+](=O)[O-])cc1
  melting point: 210 to 214 °C

## CCCOc1ccccc1OCC(O)CO (configuration not stated)
  melting point: 70 °C

## CCOC(=O)COc1ccc2c(=O)cc(-c3ccccc3)oc2c1
  melting point: 124 °C

## CC(O)C(Cl)(Cl)Cl (configuration not stated)
  melting point: 50.5 °C

## O=C(O)c1ccccc1Oc1ccccc1
  melting point: 113 °C

## COC(=O)c1cc(Cl)ccc1Br
  melting point: 39 °C

## COC=C(C(=O)OC)C(=O)OC
  melting point: 43 °C

## CCCCc1nc(Cl)c(CO)n1Cc1ccc(-c2ccccc2-c2nn[nH]n2)cc1
  melting point: 184 °C

## Nc1c(I)cc(I)cc1C(=O)O
  melting point: 241 to 243 °C

## N#Cc1ccc(F)c(Br)c1
  melting point: 56 °C

## Cc1c(NC=C2C(=O)NN=C2c2c(O)c3ccccc3n(C)c2=O)c(=O)n(-c2ccccc2)n1C
  melting point: 175 °C

## COC(=O)c1ccc(Oc2cccnc2)o1
  melting point: 78 to 79 °C

## CCCCCCCC(=O)c1ccccc1
  melting point: 22.8 °C

## Nc1ccc(-c2cnco2)cc1
  melting point: 150 to 151 °C

## Cc1ccnc(N)c1[N+](=O)[O-]
  melting point: 136 to 141 °C

## O=C(O)c1nc2ccccc2nc1O
  melting point: 267 to 268 °C

## COC(=O)C1=C(N)Oc2cc(C)[nH]c(=O)c2C1c1ccccc1 (configuration not stated)
  melting point: 230 to 232 °C

## CC(Oc1ccc(OC(F)(F)F)cc1)C(=O)O (configuration not stated)
  melting point: 76 to 78 °C

## Cc1cc(C2CC2)nc(Nc2ccccc2)n1
  melting point: 75.9 °C

## COC(=O)CCC(C)C1CCC2C3C(O)C(O)C4CC(OC(C)=O)CCC4(C)C3CC(OC(C)=O)C12C (configuration not stated)
  melting point: 175 to 177 °C

## O=C(C=NNc1ccccc1)c1ccc(C(=O)C=NNc2ccccc2)cc1
  melting point: 210 °C

## Clc1ccc2c(c1)C(N1CCNCC1)=Nc1ccccc1O2
  melting point: 176 °C

## Nc1cc(Cl)c2nonc2c1[N+](=O)[O-]
  melting point: 276 to 277 °C

## CC1OC(Oc2ccc([N+](=O)[O-])cc2)C(O)C(O)C1O (configuration not stated)
  melting point: 191 to 192 °C

## COc1cc2c(cc1OC)[C@@H](C(=O)c1ccc3c(c1OC)C=CC(C)(C)O3)CCO2
  melting point: 118 °C

## OC1(c2ccccc2)c2ccccc2Oc2ccccc21
  melting point: 158 to 162 °C

## COC(=O)CNC(SC)=C(C#N)C#N
  melting point: 90 °C

## COc1ccc(CCN2CCC(Nc3nc4ccccc4n3Cc3ccc(F)cc3)CC2)cc1
  melting point: 149 °C

## COc1ccc([N+](=O)[O-])cc1
  melting point: 54 °C

## CSc1nn(-c2ccccc2)cc1C(N)=S
  melting point: 130 to 133 °C

## O=S(=O)(Cl)Cc1ccccc1Cl
  melting point: 60 to 62 °C

## CCCc1ccc(OCC(=O)N2CCN(C(=O)COc3ccc(CCC)cc3OC)CC2)c(OC)c1
  melting point: 128 °C

## CCOC(=O)C1=C(C)NC(C)=C(C(=O)OCC)C1c1ccco1
  melting point: 164 °C

## N#CC1=C(N)Oc2c(c(C(F)(F)F)nn2-c2ccccc2)C1c1ccc(Cl)cc1 (configuration not stated)
  melting point: 221 °C

## O=P(N1CC1)(N1CC1)N(N=Cc1ccccc1)c1ccccc1
  melting point: 114 °C

## O=C(O)c1cc2sccc2[nH]1
  melting point: 180 °C

## COc1ccc(-c2cc(C(F)(F)F)[nH]n2)cc1OC
  melting point: 150 to 156 °C

## CN1CCCN(c2ccc(C=O)cc2)CC1
  melting point: 44 to 46 °C

## N#CSc1ccc(N)c(C(=O)O)c1
  melting point: 165 to 168 °C

## O=C(CC(NC(=O)OCC1c2ccccc2-c2ccccc21)C(=O)O)NC(c1ccccc1)(c1ccccc1)c1ccccc1 (configuration not stated)
  melting point: 205 °C

## Cc1ccc(S(=O)(=O)N(C)Cc2ccc(N)cc2)cc1
  melting point: 155 °C

## O=Cc1scc2c1OCCO2
  melting point: 138 to 140 °C

## COc1cc(C(=O)Nc2nnc(-c3ccc(Cl)cc3)o2)cc(OC)c1OC
  melting point: 261 to 263 °C

## COC1(C)OC(CNc2ccc(S(C)(=O)=O)cc2)C(CNc2ccc(S(C)(=O)=O)cc2)OC1(C)OC (configuration not stated)
  melting point: 194 to 195 °C
